Values quoted from earlier work in article PMC7904743, “WIDOCK: a reactive docking protocol for virtual screening of covalent inhibitors” (Journal of Computer-Aided Molecular Design, 2021).
Like-named read-outs stand apart in the source and are kept apart here.

Assays:
[1] = thiol reactivity, cited from earlier work
[2] = system: OTUB2; conditions: experimental actives if % labeling higher than 50%; cited from earlier work
[3] = system: NUDT7; conditions: protein labeling at 200 μM; experimental actives if % labeling higher than 50%; cited from earlier work
[4] = natural log of average rate constant k
[5] = natural logarithm of average rate constant

| SMILES | ln(avg k) [1, 4] | ln(avg k) [1, 5] | OTUB2 % labeling [2] [%] | NUDT7 % labeling [3] [%] |
| --- | --- | --- | --- | --- |
| O=C(CCl)NNC(=O)c1ccccc1F [PCM-0102510, O=C(CCl)NNC(=O)c1ccccc1F] | -17.412 | -17.412 | 52 | 0 |
| Cc1ccc([N+](=O)[O-])c(NC(=O)CCl)c1C [PCM-0102511, Cc1ccc([N+](=O)[O-])c(NC(=O)CCl)c1C] | -16.700 | -16.700 | 7 | 15 |
| O=C(CCl)N1CCCC1c1ccc2c(c1)OCCCO2 (stereo not shown) [PCM-0102512, O=C(CCl)N1CCCC1c1ccc2c(c1)OCCCO2] | -15.497 | -15.497 | 0 | 88 |
| O=C(CCl)N1CCCCC1 [PCM-0102514, O=C(CCl)N1CCCCC1] | -16.289 | -16.289 | 0 | 0 |
| CC(C)N(CC(F)(F)F)C(=O)CCl [PCM-0102516, CC(C)N(CC(F)(F)F)C(=O)CCl] | -17.383 | -17.383 | 0 | 0 |
| CNC(=O)C1CCCN1C(=O)CCl (stereo not shown) [PCM-0102518, CNC(=O)C1CCCN1C(=O)CCl] | -16.106 | -16.106 | 0 | 0 |
| CC(C)c1ccc(NC(=O)CCl)cc1 [PCM-0102532, CC(C)c1ccc(NC(=O)CCl)cc1] | -15.987 | -15.987 | 33 | 18 |
| CNC(=O)NC(=O)CCl [PCM-0102534, CNC(=O)NC(=O)CCl] | -16.522 | -16.522 | 0 | 0 |
| CC(=O)N1CCN(C(=O)CCl)CC1 [PCM-0102535, CC(=O)N1CCN(C(=O)CCl)CC1] | -15.085 | -15.085 | 0 | 6 |
| CC(C)(C)c1cc(NC(=O)CCl)n(-c2ccccc2)n1 [PCM-0102536, CC(C)(C)c1cc(NC(=O)CCl)n(-c2ccccc2)n1] | -15.955 | -15.955 | 14 | 0 |
| O=C(CCl)NCc1ccccc1 [PCM-0102538, O=C(CCl)NCc1ccccc1] | -16.796 | -16.796 | 28 | 0 |
| Cc1ccc(N(C(=O)CCl)C2C=CS(=O)(=O)C2)cc1 (stereo not shown) [PCM-0102539, Cc1ccc(N(C(=O)CCl)C2C=CS(=O)(=O)C2)cc1] | -15.258 | -15.258 | 16 | 33 |
| O=C(CCl)Nc1cc([N+](=O)[O-])ccc1F [PCM-0102544, O=C(CCl)Nc1cc([N+](=O)[O-])ccc1F] | -15.793 | -15.793 | 31 | 0 |
| COC(=O)c1cc(NC(=O)CCl)cn1C [PCM-0102545, COC(=O)c1cc(NC(=O)CCl)cn1C] | -15.579 | -15.579 | 33 | 0 |
| CC1(C)C(=O)Nc2ccccc2N1C(=O)CCl [PCM-0102546, CC1(C)C(=O)Nc2ccccc2N1C(=O)CCl] | -15.068 | -15.068 | 32 | 18 |
| O=C(CCl)N=c1sccn1Cc1ccccc1Cl [PCM-0102550, O=C(CCl)N=c1sccn1Cc1ccccc1Cl] | -15.426 | -15.426 | 0 | 11 |
| Cc1ccc(CN(C)C(=O)CCl)c(C)c1 [PCM-0102552, Cc1ccc(CN(C)C(=O)CCl)c(C)c1] | -16.104 | -16.104 | 0 | 19 |
| CC(C)(O)CNC(=O)CCl [PCM-0102554, CC(C)(O)CNC(=O)CCl] | -16.972 | -16.972 | 0 | 0 |
| CC(c1ccc(Cl)cc1)N(C)C(=O)CCl (stereo not shown) [PCM-0102556, CC(c1ccc(Cl)cc1)N(C)C(=O)CCl] | -15.842 | -15.842 | 0 | 39 |
| COc1ccc(C2CCCCCN2C(=O)CCl)cc1 (stereo not shown) [PCM-0102558, COc1ccc(C2CCCCCN2C(=O)CCl)cc1] | -16.020 | -16.020 | 0 | 100 |
| CC(NC(=O)CCl)C1CC2CCC1C2 (stereo not shown) [PCM-0102572, CC(NC(=O)CCl)C1CC2CCC1C2] | -17.138 | -17.138 | 0 | 0 |
| O=C(NC1CCN(C(=O)CCl)CC1)c1ccccc1 [PCM-0102575, O=C(NC1CCN(C(=O)CCl)CC1)c1ccccc1] | -15.398 | -15.398 | 9 | 9 |
